# The source made the active and inactive calls. For most assays here, no stated cut-off is given here; in the data, actives have a measured IC50 and inactives only a lower limit.
# Columns and labels:
# [1] = target: T1, Sentrin-specific protease 7 (Homo sapiens, UniProt Q9BQF6); type: functional;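 further: Luminescence-based dose-response confirmation of ultra-high-throughput screening hits, measuring inhibition of SENP7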
# T1 sequence (Q9BQF6 whole entry): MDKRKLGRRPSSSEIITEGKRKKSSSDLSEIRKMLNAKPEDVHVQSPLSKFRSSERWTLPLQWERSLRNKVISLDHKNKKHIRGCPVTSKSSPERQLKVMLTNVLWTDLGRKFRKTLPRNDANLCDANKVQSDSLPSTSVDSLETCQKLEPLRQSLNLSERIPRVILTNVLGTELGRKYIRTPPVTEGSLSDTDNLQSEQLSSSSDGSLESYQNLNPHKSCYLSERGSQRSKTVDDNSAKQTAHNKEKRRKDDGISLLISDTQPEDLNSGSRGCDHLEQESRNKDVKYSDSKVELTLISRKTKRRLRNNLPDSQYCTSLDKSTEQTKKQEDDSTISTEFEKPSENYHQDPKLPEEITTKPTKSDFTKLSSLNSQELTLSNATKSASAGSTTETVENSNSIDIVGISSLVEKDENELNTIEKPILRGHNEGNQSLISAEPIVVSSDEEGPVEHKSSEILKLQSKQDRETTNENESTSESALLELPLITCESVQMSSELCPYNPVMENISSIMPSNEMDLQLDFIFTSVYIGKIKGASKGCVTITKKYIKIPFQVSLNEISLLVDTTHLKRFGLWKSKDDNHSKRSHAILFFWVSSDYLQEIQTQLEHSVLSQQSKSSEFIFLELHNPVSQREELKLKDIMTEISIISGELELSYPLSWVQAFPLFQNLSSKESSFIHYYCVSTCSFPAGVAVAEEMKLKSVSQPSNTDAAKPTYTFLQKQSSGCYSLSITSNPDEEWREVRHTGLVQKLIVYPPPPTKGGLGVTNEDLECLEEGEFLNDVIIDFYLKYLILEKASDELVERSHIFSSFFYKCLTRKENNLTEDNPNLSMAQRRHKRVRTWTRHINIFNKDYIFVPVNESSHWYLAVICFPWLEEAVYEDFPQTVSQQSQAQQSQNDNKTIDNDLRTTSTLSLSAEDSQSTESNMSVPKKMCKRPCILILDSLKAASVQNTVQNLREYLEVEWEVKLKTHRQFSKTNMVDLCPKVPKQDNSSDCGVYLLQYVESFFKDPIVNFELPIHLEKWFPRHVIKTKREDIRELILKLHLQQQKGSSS
# [2] = target: T2, Tyrosyl-DNA phosphodiesterase 2 (Homo sapiens, UniProt O95551); assay: human TDP2 enzyme inhibitors, dose response, biochemical, epi absorbance, IC50 (AID 743297)
# T2 sequence (O95551 whole entry): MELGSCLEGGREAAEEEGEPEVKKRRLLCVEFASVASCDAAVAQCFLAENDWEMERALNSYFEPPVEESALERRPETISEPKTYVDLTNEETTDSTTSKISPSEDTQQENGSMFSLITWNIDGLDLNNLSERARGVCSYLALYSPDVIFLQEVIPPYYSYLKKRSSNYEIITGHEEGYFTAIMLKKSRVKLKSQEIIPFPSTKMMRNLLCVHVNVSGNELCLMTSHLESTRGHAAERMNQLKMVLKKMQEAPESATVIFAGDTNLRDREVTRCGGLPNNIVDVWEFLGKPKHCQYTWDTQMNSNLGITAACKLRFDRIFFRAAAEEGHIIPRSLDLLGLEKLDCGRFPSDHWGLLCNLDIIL
# [3] = target: T3, Sentrin-specific protease 6 (Homo sapiens, UniProt Q9GZR1); type: functional;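 further: Luminescence-based dose-response confirmatory assay of SENP6 inhibition, following up an ultra-high-throughput screen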
# T3 sequence (Q9GZR1 whole entry): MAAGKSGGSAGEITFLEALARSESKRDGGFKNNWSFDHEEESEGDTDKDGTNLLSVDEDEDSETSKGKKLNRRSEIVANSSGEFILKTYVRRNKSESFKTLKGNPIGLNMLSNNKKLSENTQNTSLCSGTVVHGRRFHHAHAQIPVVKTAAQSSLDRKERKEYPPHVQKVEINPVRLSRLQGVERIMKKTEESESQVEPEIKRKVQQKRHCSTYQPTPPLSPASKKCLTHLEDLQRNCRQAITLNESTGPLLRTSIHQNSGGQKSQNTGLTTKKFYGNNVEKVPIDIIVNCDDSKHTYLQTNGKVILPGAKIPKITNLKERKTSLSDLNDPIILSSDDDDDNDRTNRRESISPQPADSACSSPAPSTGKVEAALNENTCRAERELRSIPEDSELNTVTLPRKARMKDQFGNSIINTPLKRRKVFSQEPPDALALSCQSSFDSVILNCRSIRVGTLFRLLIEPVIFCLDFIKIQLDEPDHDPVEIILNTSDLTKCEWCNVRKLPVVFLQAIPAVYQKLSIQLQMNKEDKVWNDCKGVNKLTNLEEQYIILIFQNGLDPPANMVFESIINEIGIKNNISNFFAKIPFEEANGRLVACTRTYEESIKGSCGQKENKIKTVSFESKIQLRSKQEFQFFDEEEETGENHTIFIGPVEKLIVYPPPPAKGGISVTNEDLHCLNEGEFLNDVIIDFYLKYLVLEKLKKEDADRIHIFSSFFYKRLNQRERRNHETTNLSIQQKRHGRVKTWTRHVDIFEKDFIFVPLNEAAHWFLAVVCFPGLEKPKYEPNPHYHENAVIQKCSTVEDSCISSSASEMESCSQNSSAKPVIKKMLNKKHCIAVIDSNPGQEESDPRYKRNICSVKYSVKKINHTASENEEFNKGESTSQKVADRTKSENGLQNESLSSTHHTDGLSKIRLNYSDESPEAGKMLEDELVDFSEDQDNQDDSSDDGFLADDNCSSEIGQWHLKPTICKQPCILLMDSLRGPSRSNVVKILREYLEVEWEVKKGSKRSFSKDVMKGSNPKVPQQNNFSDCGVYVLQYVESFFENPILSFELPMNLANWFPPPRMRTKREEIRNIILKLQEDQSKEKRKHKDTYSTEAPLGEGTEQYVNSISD
IC50 [1],IC50 [2],IC50 [3],Compound
7.78 µM (active),32.2 µM (inactive),4.59 µM (active),NS(=O)(=O)c1ccc(NC(=O)COC(=O)c2ccc([N+](=O)[O-])s2)cc1
19.9 µM (active),87.5 µM (inactive),6.78 µM (active),CCCCNc1cc(NC(C)=O)cc2cc(OC)c(OC)cc12

# — ChEMBL document CHEMBL1201862, “PubChem BioAssay data set” (2004)
